Experimental data from PMC12524732 (2025).

Key:
[1] = system: mutTel24 (DNA, G4) TTGGGTTAGGGTTAGGGTTAGGGA; assay: 1H-NMR titration; conditions: 20 mM KCl; 10 mM KH2PO4, pH 7.0, 25 °C; 0.2 mM DNA; up to 4 equivalents; no shifts
[2] = system: c-MYC (DNA, G4) TGAGGGTGGGTAGGGTGGGTAA; assay: ITC; conditions: 20 mM KCl; 10 mM KH2PO4, pH 7.0, 25 °C; ~20 µM DNA; up to 8 equivalents; Kb and n not determinable
[3] = system: c-KIT2 (DNA, G4) CGGGCGGGCGCTAGGGAGGGT; assay: 1H-NMR titration; conditions: 20 mM KCl; 10 mM KH2PO4, pH 7.0, 25 °C; 0.2 mM DNA; up to 8 equivalents; shifts up to ~50 Hz, 5′ G-quartet
[4] = system: dsDNA duplex (DNA, duplex) GTAACTAGTTAACGATC/GATCGTTAACTAGTTAC; assay: 1H-NMR titration; conditions: 20 mM KCl; 10 mM KH2PO4, pH 7.0, 25 °C; 0.2 mM DNA; up to 4 equivalents; no shifts
[5] = system: c-KIT2 (DNA, G4) CGGGCGGGCGCTAGGGAGGGT; assay: ITC; conditions: 20 mM KCl; 10 mM KH2PO4, pH 7.0, 25 °C; ~20 µM DNA; up to 8 equivalents; Kb and n not determinable
[6] = system: c-MYC (DNA, G4) TGAGGGTGGGTAGGGTGGGTAA; assay: 1H-NMR titration; conditions: 20 mM KCl; 10 mM KH2PO4, pH 7.0, 25 °C; 0.2 mM DNA; up to 8 equivalents; shifts up to ~70 Hz, mainly 3′ G-quartet

- binding [1]: no
- ΔH° [2]: −11.7 ± 2.0 kJmol^−1
- binding [3]: weak
- binding [4]: no
- ΔH° [5]: −52.8 ± 5.8 kJmol^−1
- binding [6]: weak
SMILES: CC[C@]1(O)C[C@H]2CN(CCc3c([nH]c4ccccc34)[C@@](C(=O)OC)(c3cc4c(cc3OC)N(C=O)[C@H]3[C@@](O)(C(=O)OC)[C@H](OC(C)=O)[C@]5(CC)C=CCN6CC[C@]43[C@@H]65)C2)C1
